This is an account of results in publication PMC11960442, “In vitro activities of lipopeptides against fluconazole-resistant Candida auris” (Microbiology Spectrum, 2025).

In assay [1] the test system is fluconazole-resistant C. auris isolates. As to the kind of experiment: microbe, parasite or virus in culture. The conditions noted are these: Candidozyma auris, EUCAST broth microdilution, RPMI 1640 with 2% glucose.
Assay [2] has as its system C. auris isolates 728157, CAB-1, CAB-2. As to the kind of experiment: Growth curves (OD450 nm every hour for 24 h). Type of assay: cell-based, Candida auris. Conditions: for growth: growth curve 24 h. Here is the method:
Growth Curves. The action of the peptides was assessed by growth curve measuring OD450 nm every hour for 24 h using peptides at different concentrations (0.5X, 1X, 2X MIC). […] Untreated isolates were used as control. All experiments were replicated at least three times.

Assay [3] shares this test system. As to the kind of experiment: Time-kill experiments (CFU counts), peptides combined with fluconazole. The conditions noted are these: for interaction with fluconazole in time-kill: fluconazole 128 mg/L with 0.5X and 1X MIC of peptide, interpreted by White et al.; for log difference compared to single administration, time-kill: C. auris CAB-1. The format is cell-based, Candida auris.

Assay [4] relates to C. auris. The experiment in a line: Stability of compounds: MIC after pre-incubation of the peptides. The format is cell-based, Candida auris. The conditions noted are these: peptides previously incubated for 24 and 48 hours at 37°C; no changes in MIC values. Here is the method:
Determination of MICs. […] The media used for this assay was RPMI 1640 with 2% of glucose and the concentration of antifungal and peptides tested ranged from 128 to 0.25 mg/l.
Stability of compounds The peptides were incubated at 37°C for 24 and 48 hours. They were then used to perform MIC determination as previously described.

Assay [5] relates to fluconazole-resistant C. auris isolates. The conditions noted are these: for MIC: EUCAST broth microdilution, RPMI 1640 with 2% glucose; for MIC values: the six C. auris isolates.
Where [6] appears, read: isolate 728157 (clade I, ERG11 K143R).
[7] abbreviates: isolate CAB-1 (clade I, ERG11 Y132F).
Setting [8] is: isolate CAB-2 (clade I, ERG11 Y132F).
The mark [9] stands for this setting: isolate CAB-3 (clade I, ERG11 Y132F).
Setting [10] is: isolate CAB-4 (clade I, ERG11 Y132F).
[11] abbreviates: isolate CAB-5 (clade I, ERG11 Y132F).
The mark [12] stands for this setting: C. auris 728157, all the concentrations (0.5X, 1X, 2X MIC).
The mark [13] stands for this setting: C. auris 728157, peptide at 0.5X MIC.
[14] abbreviates: C. auris 728157, peptide at 1X and 2X MIC.
Setting [15] is: C. auris CAB-1, peptide at 1X and 2X MIC.
The mark [16] stands for this setting: C. auris CAB-2, peptide at 1X MIC.
Where [17] appears, read: C. auris CAB-2, peptide at 2X MIC.
Where [18] appears, read: fluconazole combined with 0.5X MIC of peptide, after 12 hours.
[19] abbreviates: C. auris CAB-2, fluconazole combined with 0.5X MIC of peptide, after 12 hours.

In brackets after ≈: the same amount, converted by molar mass. Where two headings read alike, the source gives them in different places. Non-standard residues stand in square brackets, D forms with d. Residues, ends and D or L forms follow the SMILES beside them. *: point of attachment. Myristoyl = CCCCCCCCCCCCCC(=O)*; Nle = CCCC[C@H](N)C(=O)O A value given as a limit tells only on which side of the number the result lay.

As for `C[C@@H]1[C@H](O)[C@@H](C)/C=C/C=C/C=C/C=C/C=C/C=C/C=C/[C@H](O[C@@H]2O[C@H](C)[C@@H](O)[C@H](N)[C@@H]2O)C[C@@H]2O[C@](O)(C[C@@H](O)C[C@@H](O)[C@H](O)CC[C@@H](O)C[C@@H](O)CC(=O)O[C@H]1C)C[C@H](O)[C@H]2C(=O)O` [AMB, amphotericin], the MIC in assay [1] (setting [6]) was found to be 0.5 µg/mL (≈ 0.541 µM); in assay [1] (setting [7]), 1 µg/mL (≈ 1.08 µM); in assay [1] (setting [8]), 1 µg/mL (≈ 1.08 µM); in assay [1] (setting [9]), 1 µg/mL (≈ 1.08 µM); in assay [1] (setting [10]), 1 µg/mL (≈ 1.08 µM); in assay [1] (setting [11]) it was 1 µg/mL (≈ 1.08 µM).

Turning to `OC(Cn1cncn1)(Cn1cncn1)c1ccc(F)cc1F` [FLU, fluconazole], the MIC in assay [1] (setting [6]) was over 128 µg/mL; in assay [1] (setting [7]), 64 µg/mL (≈ 209 µM); in assay [1] (setting [11]), 64 µg/mL (≈ 209 µM).

Turning to `CCCCCCCCCCCCCC(=O)N[C@@H](CCCC)C(=O)N[C@@H](CCCNC(=N)N)C(=O)N[C@@H](CCCNC(=N)N)C(N)=O` [NeI, C14-NleRR-NH2] (Myristoyl-[Nle]-Arg-Arg-NH2), the “hours of treatment after which P <0.05 compared to control (growth curve)” value came to 8 h in assay [2] (setting [12]); 8 h in assay [2] (C. auris CAB-1, 1X and 2X MIC concentrations); 7 h in assay [2] (C. auris CAB-2, 1X and 2X MIC concentrations). Also, the “delay of the start of growth compared to the control” value in assay [2] (setting [13]) is 16 h; in assay [2] (setting [16]), 14 h. Moreover, the growth result in assay [2] (setting [14]), in assay [2] (setting [15]) and in assay [2] (setting [17]) was “completely inhibited” each time. The “interaction with fluconazole in time-kill” value in assay [3] (C. auris 728157) is on record as “synergistic effect”. In addition, the “log difference, time-kill” value came to 3.10 log in assay [3] (C. auris 728157, fluconazole (128 mg/L) in combination with 0.5X and 1X MIC of peptide, at 32 hours); 3.53 log in assay [3] (C. auris 728157, fluconazole (128 mg/L) in combination with 0.5X and 1X MIC of peptide, at 48 hours); 1.19 log in assay [3] (setting [19]). Besides, the “log difference compared to single administration, time-kill” value in assay [3] (setting [18]) came to 2.19 log. The “MIC after pre-incubation of the peptide (stability)” value in assay [4] amounted to 8 µg/mL. Also, the MIC in assay [5] (setting [6]), in assay [5] (setting [7]), in assay [5] (setting [8]), in assay [5] (setting [9]), in assay [5] (setting [10]) and in assay [5] (setting [11]) was 8 µg/mL (≈ 12.3 µM) throughout. For the same compound, the MIC values in assay [5] was found to be 8 µg/mL; in assay [5] (8 mg/L expressed in µM), 9 µM.

`CCCCCCCCCCCCCC(=O)N[C@@H](Cc1c[nH]c2ccccc12)C(=O)N[C@@H](CCCNC(=N)N)C(=O)N[C@@H](CCCNC(=N)N)C(N)=O` [WR, C14-WRR-NH2] (Myristoyl-Trp-Arg-Arg-NH2): the “hours of treatment after which P <0.05 compared to control (growth curve)” value in assay [2] (setting [12]) was found to be 9 h; in assay [2] (C. auris CAB-1, all the concentrations (0.5X, 1X, 2X MIC)) it was 9 h; in assay [2] (C. auris CAB-2, all the concentrations (0.5X, 1X, 2X MIC)), 8 h. The “delay of the start of growth compared to the control” value in assay [2] (setting [13]) came to 22 h; in assay [2] (setting [16]) it was 16 h. For the same compound, the growth result in assay [2] (setting [14]), in assay [2] (setting [15]) and in assay [2] (setting [17]) was “completely inhibited” each time. Moreover, the “growth after 24 hours compared to the control” value in assay [2] (peptide at 0.5X MIC, ANOVA, P <0.05) was “statistically significant reduction of growth”. In assay [3] (C. auris 728157), the “interaction with fluconazole in time-kill” value is listed as “additive effect”. Moreover, the “log difference compared to single administration, time-kill” value in assay [3] (setting [18]) came out at 2.96 log. Moreover, the “log difference, time-kill” value in assay [3] (setting [19]) is 1.69 log. The “MIC after pre-incubation of the peptide (stability)” value in assay [4] came out at 8 µg/mL. Moreover, the MIC in assay [5] (setting [6]), in assay [5] (setting [7]), in assay [5] (setting [8]), in assay [5] (setting [9]), in assay [5] (setting [10]) and in assay [5] (setting [11]) was 8 µg/mL (≈ 11 µM) in each case. The MIC values worked out at 8 µg/mL in assay [5] and 8.4 µM in assay [5] (8 mg/L expressed in µM).

anidulafungin [reference compound]: the MIC in assay [5] (setting [6]) was 0.25 µg/mL; in assay [5] (setting [7]) it was 0.5 µg/mL; in assay [5] (setting [8]), 0.25 µg/mL; in assay [5] (setting [9]) it was 0.25 µg/mL; in assay [5] (setting [10]) it was 0.25 µg/mL; in assay [5] (setting [11]) it was 0.25 µg/mL.
